Experimental findings from ChEMBL document CHEMBL6096675 (J Med Chem, 2025) are described below.

The structures appear in SMILES notation. Active and inactive are the calls of the source. The calls are words filed in the database; no cut-off is given here. Some results are limits rather than exact numbers.

For one data set, the system named is SK-MEL-5. The experiment in a line: Antiproliferative activity against human SMARCA4-deficient SK-MEL-5 cells assessed as inhibition of cell growth measured after 7 days by WST-8 assay. In kind it is functional. As to conditions: SK-MEL-5, 168 h, time 7 day.
A short description of data set [1]: Antiproliferative activity against human SMARCA4-deficient NCI-H838 cells assessed as inhibition of cell growth measured after 7 days by WST-8 assay. As to conditions: NCI-H838, 168 h, time 7 day. Format: functional. A general note: Formazan colour is commonly taken as a measure of viable cells.
A short description of data set [2]: Antiproliferative activity against human SMARCA4-deficient NCI-H1568 cells assessed as inhibition of cell growth measured after 7 days by WST-8 assay. In kind it is functional. To be noted: NCI-H1568, 168 h, time 7 day.
Data set [3] can be described thus: Antiproliferative activity against human SMARCA4-deficient NCI-H1944 cells assessed as inhibition of cell growth measured after 7 days by WST-8 assay. In kind it is functional. To be noted: NCI-H1944, 168 h, time 7 day.
Data set [4] in a line: Antiproliferative activity against human SMARCA4-deficient NCI-H1693 cells assessed as inhibition of cell growth measured after 7 days by WST-8 assay. Format: functional. As to conditions: NCI-H1693, 168 h, time 7 day.
The subject of data set [5] is NCI-H1792. The experiment in a line: Antiproliferative activity against human SMARCA4-wild type NCI-H1792 cells assessed as inhibition of cell growth measured after 7 days by WST-8 assay. In kind it is functional. As to conditions: NCI-H1792, 168 h, time 7 day.
The subject of data set [6] is SK-MEL-28. The experiment in a line: Antiproliferative activity against human SMARCA4-wild type SK-MEL-28 cells assessed as inhibition of cell growth measured after 7 days by WST-8 assay. To be noted: SK-MEL-28, 168 h, time 7 day. In kind it is functional.
Data set [7] in a line: Antiproliferative activity against human […] NCI-H1975 cells assessed as inhibition of cell growth measured after 7 days by WST-8 assay. In kind it is functional. To be noted: NCI-H1975, 168 h, time 7 day.
The nature of data set [8]: Antiproliferative activity against human SMARCA4-deficient NCI-H838 cells assessed as maximal inhibition of cell growth measured after 7 days by WST-8 assay relative to control. Format: functional. To be noted: time 7 day.
The nature of data set [9]: Antiproliferative activity against human SMARCA4-deficient NCI-H1568 cells assessed as maximal inhibition of cell growth measured after 7 days by WST-8 assay relative to control. As to conditions: time 7 day. Format: functional.
Data set [10] is described as follows: Antiproliferative activity against human SMARCA4-deficient NCI-H1944 cells assessed as maximal inhibition of cell growth measured after 7 days by WST-8 assay relative to control. To be noted: time 7 day. In kind it is functional.
The nature of data set [11]: Antiproliferative activity against human SMARCA4-deficient NCI-H1693 cells assessed as maximal inhibition of cell growth measured after 7 days by WST-8 assay relative to control. Format: functional. As to conditions: time 7 day.
Data set [12] concerns NCI-H1792. The experiment in a line: Antiproliferative activity against human SMARCA4-wild type NCI-H1792 cells assessed as maximal inhibition of cell growth measured after 7 days by WST-8 assay relative to control. Format: functional. To be noted: time 7 day.
The test system of data set [13] is SK-MEL-28. The experiment in a line: Antiproliferative activity against human SMARCA4-wild type SK-MEL-28 cells assessed as maximal inhibition of cell growth measured after 7 days by WST-8 assay relative to control. Format: functional. As to conditions: time 7 day.
The nature of data set [14]: Antiproliferative activity against human […] NCI-H1975 cells assessed as maximal inhibition of cell growth measured after 7 days by WST-8 assay relative to control. In kind it is functional. As to conditions: time 7 day.
In another data set the test system is NCI-H838. Put plainly: In vivo anti-tumor activity against SMARCA4-deficient human NCI-H838 cells xenografted in SCID mouse assessed as assessed as inhibition of tumor growth at 10 to 30 mg/kg, iv weekly once. Format: functional, organism-based. To be noted: dose 10-30 mg/kg. For orientation: Xenograft models place foreign cells or tissue in a host animal.

The target of data set [15] is von Hippel-Lindau disease tumor suppressor (Homo sapiens, UniProt P40337). The experiment in a line: Inhibition of VHL (unknown origin).
For data set [16], the target named is SWI/SNF-related matrix-associated actin-dependent regulator of chromatin subfamily A member 2 (Homo sapiens, UniProt P51531). The experiment in a line: Inhibition of SMARCA2 (unknown origin).
In data set [17] the target is SWI/SNF-related matrix-associated actin-dependent regulator of chromatin subfamily A member 4 (Homo sapiens, UniProt P51532). Put plainly: Inhibition of SMARCA4 (unknown origin).
Data set [18] has as its target von Hippel-Lindau disease tumor suppressor/SWI/SNF-related matrix-associated actin-dependent regulator of chromatin subfamily A member 2 (Homo sapiens, UniProt P51531+P40337). Put plainly: PROTAC activity at SMARCA2/VHL1 in human HeLa cells assessed as protein degradation by Nano-Glo HiBiT lytic detection assay. Format: cell-based.
The target of data set [19] is T1, von Hippel-Lindau disease tumor suppressor/SWI/SNF-related matrix-associated actin-dependent regulator of chromatin subfamily A member 4 (Homo sapiens, UniProt P51532+P40337). The experiment in a line: PROTAC activity at SMARCA4/VHL1 in human HeLa cells assessed as protein degradation by Nano-Glo HiBiT lytic detection assay. In kind it is cell-based. On the technique in general: With HiBiT, luminescence reflects the tagged protein that the partner subunit can reach.

Data set [20] in a line: Plasma concentration in SCID mouse xenografted with human NCI-H838 cells at 10 mg/kg, iv measured after 48 hrs by LC-MS/MS analysis. Format: ADME, organism-based.
Data set [21] is described as follows: Plasma concentration in SCID mouse xenografted with human NCI-H838 cells at 10 mg/kg, iv measured after 168 hrs by LC-MS/MS analysis. Format: ADME, organism-based. To be noted: SCID, plasma.
Data set [22] can be described thus: Drug uptake in tumor of human NCI-H838 cells xenografted SCID mouse model at 10 mg/kg, iv measured after 48 hrs by LC-MS/MS analysis. To be noted: read-out: Drug uptake. In kind it is ADME, organism-based, Neoplasm.
The nature of data set [23]: Drug uptake in tumor of human NCI-H838 cells xenografted SCID mouse model at 10 mg/kg, iv measured after 168 hrs by LC-MS/MS analysis. In kind it is ADME, organism-based, Neoplasm. As to conditions: read-out: Drug uptake.
The target of data set [24] is T1, von Hippel-Lindau disease tumor suppressor/SWI/SNF-related matrix-associated actin-dependent regulator of chromatin subfamily A member 4. The experiment in a line: PROTAC activity at SMARCA4/VHL1 in human HeLa cells assessed as protein degradation after 2 hrs by Nano-Glo HiBiT lytic detection assay. Format: cell-based.
Data set [25] can be described thus: PROTAC activity at SMARCA2/E3 ubiquitin ligase (unknown origin) assessed as protein degradation. The arrangement: species or system Homo sapiens.
Data set [26] in a line: PROTAC activity at SMARCA4/E3 ubiquitin ligase (unknown origin) assessed as protein degradation. More on the design: species or system Homo sapiens.
The species named for data set [27] is Homo sapiens. The experiment in a line: PROTAC activity at SMARCA2/E3 ubiquitin ligase (unknown origin) assessed as maximal protein degradation.
Data set [28] is filed under the species Homo sapiens. Put plainly: PROTAC activity at SMARCA4/E3 ubiquitin ligase (unknown origin) assessed as maximal protein degradation.
The species named for data set [29] is Homo sapiens. The experiment in a line: Selectivity ratio, ratio of DC50 for PROTAC activity at SMARCA2/E3 ubiquitin ligase (unknown origin) to DC50 for PROTAC activity at SMARCA4/E3 ubiquitin ligase (unknown origin.

Chain of SWI/SNF-related matrix-associated actin-dependent regulator of chromatin subfamily A member 2 (P51531 whole entry): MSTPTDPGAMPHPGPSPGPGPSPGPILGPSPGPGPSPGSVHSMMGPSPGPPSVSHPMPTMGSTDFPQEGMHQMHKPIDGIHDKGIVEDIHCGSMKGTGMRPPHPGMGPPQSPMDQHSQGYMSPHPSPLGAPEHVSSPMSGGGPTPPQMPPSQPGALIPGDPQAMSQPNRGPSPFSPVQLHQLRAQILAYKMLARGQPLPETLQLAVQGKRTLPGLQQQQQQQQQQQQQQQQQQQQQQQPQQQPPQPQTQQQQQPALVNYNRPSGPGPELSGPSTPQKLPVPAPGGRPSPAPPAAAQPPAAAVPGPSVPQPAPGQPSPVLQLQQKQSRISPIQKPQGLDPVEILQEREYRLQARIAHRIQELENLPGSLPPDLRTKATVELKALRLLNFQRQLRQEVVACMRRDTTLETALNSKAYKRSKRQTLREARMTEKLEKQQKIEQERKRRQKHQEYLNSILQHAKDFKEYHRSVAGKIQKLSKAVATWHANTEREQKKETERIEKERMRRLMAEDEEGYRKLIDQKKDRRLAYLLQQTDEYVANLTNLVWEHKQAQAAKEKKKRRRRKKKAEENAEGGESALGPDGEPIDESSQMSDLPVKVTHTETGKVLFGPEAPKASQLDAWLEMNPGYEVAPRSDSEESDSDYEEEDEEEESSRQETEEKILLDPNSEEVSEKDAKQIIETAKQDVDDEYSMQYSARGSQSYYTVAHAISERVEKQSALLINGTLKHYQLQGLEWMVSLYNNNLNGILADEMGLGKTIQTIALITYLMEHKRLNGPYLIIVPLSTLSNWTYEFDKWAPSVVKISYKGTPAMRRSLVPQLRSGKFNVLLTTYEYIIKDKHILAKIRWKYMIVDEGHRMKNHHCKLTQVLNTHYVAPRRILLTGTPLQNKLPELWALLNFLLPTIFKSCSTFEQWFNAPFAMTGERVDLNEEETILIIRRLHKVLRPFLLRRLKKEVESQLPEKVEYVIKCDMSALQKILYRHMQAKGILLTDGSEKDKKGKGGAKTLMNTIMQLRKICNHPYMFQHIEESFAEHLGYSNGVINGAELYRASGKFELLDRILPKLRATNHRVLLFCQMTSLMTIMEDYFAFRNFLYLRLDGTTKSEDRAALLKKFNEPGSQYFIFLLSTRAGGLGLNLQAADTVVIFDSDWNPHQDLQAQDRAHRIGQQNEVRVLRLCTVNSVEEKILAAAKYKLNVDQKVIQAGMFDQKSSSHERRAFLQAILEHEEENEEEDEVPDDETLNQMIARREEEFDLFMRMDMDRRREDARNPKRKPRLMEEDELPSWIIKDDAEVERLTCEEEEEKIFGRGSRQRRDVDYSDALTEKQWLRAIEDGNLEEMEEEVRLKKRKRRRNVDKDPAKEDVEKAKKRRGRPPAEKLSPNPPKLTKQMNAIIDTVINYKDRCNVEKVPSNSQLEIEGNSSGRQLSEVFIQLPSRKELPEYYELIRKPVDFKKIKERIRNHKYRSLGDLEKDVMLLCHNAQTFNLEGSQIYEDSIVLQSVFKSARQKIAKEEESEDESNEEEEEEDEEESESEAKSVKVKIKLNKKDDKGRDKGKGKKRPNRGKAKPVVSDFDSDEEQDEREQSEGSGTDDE
Chain of von Hippel-Lindau disease tumor suppressor (P40337 whole entry): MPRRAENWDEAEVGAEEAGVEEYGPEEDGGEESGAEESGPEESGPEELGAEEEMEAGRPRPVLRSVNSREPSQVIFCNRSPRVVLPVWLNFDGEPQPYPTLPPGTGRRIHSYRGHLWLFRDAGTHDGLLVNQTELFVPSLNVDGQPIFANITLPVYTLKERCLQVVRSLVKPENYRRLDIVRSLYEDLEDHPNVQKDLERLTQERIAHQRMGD
T1 sequence (P51532 whole entry): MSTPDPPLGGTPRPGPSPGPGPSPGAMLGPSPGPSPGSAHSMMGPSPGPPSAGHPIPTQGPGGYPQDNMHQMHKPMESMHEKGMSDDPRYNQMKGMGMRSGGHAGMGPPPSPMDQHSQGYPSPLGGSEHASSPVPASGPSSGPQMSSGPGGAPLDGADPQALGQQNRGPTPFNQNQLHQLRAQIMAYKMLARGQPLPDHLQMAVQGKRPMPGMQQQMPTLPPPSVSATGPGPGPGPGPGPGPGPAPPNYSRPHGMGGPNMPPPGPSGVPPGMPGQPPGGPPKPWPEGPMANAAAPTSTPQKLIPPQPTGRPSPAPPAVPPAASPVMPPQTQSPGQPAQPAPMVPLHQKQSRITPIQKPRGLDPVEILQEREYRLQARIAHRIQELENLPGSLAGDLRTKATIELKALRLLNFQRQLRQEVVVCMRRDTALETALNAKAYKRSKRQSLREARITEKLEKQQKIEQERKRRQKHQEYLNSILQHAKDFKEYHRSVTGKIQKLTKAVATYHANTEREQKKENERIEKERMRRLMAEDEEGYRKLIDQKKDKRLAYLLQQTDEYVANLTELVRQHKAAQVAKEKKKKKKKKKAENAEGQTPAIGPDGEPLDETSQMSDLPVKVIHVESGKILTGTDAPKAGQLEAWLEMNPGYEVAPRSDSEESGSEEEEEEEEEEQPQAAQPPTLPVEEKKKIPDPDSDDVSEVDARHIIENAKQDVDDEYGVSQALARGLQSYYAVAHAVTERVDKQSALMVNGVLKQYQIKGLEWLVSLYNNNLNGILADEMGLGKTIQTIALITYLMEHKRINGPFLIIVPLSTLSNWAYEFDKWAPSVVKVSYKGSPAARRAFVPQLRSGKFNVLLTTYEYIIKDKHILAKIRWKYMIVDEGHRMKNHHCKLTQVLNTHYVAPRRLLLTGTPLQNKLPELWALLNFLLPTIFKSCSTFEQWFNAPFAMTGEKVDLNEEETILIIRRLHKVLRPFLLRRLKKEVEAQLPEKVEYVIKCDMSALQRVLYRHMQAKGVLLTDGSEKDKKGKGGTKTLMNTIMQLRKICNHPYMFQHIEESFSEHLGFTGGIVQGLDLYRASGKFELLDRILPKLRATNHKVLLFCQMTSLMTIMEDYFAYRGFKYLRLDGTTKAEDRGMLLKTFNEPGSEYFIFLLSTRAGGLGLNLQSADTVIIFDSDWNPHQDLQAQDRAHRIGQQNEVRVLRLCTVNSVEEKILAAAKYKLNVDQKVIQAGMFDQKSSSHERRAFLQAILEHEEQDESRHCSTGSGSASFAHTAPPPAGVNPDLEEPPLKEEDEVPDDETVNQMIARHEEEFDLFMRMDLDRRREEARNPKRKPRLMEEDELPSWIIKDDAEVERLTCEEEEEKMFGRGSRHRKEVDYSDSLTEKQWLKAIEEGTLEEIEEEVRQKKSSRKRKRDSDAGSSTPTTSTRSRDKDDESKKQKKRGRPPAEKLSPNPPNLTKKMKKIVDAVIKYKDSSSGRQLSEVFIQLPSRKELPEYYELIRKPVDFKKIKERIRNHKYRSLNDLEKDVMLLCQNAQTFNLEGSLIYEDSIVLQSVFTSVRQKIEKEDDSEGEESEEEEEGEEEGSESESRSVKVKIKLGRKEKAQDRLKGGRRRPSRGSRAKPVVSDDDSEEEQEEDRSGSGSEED
T1 sequence (P40337 whole entry): as the sequence (P40337 whole entry) above
Chain of SWI/SNF-related matrix-associated actin-dependent regulator of chromatin subfamily A member 4 (P51532 whole entry): as the sequence (P51532 whole entry) above
Chain of von Hippel-Lindau disease tumor suppressor/SWI/SNF-related matrix-associated actin-dependent regulator of chromatin subfamily A member 2 (P51531 whole entry): as the sequence (P51531 whole entry) above
Chain of von Hippel-Lindau disease tumor suppressor/SWI/SNF-related matrix-associated actin-dependent regulator of chromatin subfamily A member 2 (P40337 whole entry): as the sequence (P40337 whole entry) above

In the case of `Cc1ncsc1-c1ccc([C@H](C)NC(=O)[C@@H]2C[C@@H](O)CN2C(=O)[C@@H](NC(=O)[C@H]2CC[C@H](CN3CC4(CCC(n5cc(-c6cc(-c7ccccc7O)nnc6N)cn5)CC4)C3)CC2)C(C)(C)C)cc1`, the concentration for 50% growth inhibition (GI50) (commonly the concentration that inhibits growth by half) in the data set on SK-MEL-5 is 16 nM; in data set [1] it was 152 nM; in data set [2], 12 nM; in data set [3], 123 nM; in [4], 43 nM; in the data set with NCI-H1792 [5], more than 10000 nM. Besides, the GI50 (in the data set on SK-MEL-28 [6]; in [7]) was more than 10000 nM in each case. In addition, the Imax was 77% in data set [8]; 87% in [9]; 70% in [10]; 81% in [11]; 25% in the data set with NCI-H1792 [12]; 15% in the data set with SK-MEL-28 [13]. The Imax in data set [14] is 40%. Moreover, in the data set on NCI-H838, the outcome was Active.
Regarding `Cc1ncsc1-c1ccc([C@H](C)NC(=O)[C@@H]2C[C@@H](O)CN2C(=O)[C@@H](n2cc(C3CC3)nn2)C(C)(C)C)cc1`, the IC50 (usually the concentration needed to halve the response being measured) in data set [15] is 18.9 nM.
As to `O=c1nc2n(c3cccc(Cl)c13)-c1cc(C3CCNCC3)ccc1C21CCCCC1`, the IC50 in data set [16] is 66 nM; in data set [17], 83 nM.
As to `Cc1ncsc1-c1ccc([C@H](CN2CCOCC2)NC(=O)[C@@H]2C[C@@H](O)CN2C(=O)[C@H](C2CCOCC2)n2cc([C@H]3CC[C@H](CN4CCC(c5ccc6c(c5)-n5c(nc(=O)c7c(Cl)cccc75)C65CCCCC5)CC4)CC3)nn2)cc1`, the values for the DC50 in data set [18] and in data set [19] were 0.1 nM and more than 1000 nM, respectively. Moreover, the concentration at 48 h in data set [20] amounted to 30 ng/mL; in data set [22], 491 ng/mL. Moreover, the concentration at 168 h was determined as 2.6 ng/mL in data set [21] and 65 ng/mL in data set [23].
Take `Cc1cn([C@H](C(=O)N2C[C@H](O)C[C@H]2C(=O)N[C@@H](C)c2ccc(-c3scnc3C)cc2)C(C)(C)C)nn1`: 16.1 nM corresponded to half-maximal inhibition in data set [15] (IC50).
Regarding `Cc1ncsc1-c1ccc([C@H](CN2CCOCC2)NC(=O)[C@@H]2C[C@H](O)CN2C(=O)[C@@H](n2cc([C@H]3CC[C@H](CN4CCC(c5ccc6c(c5)C5(CCCCC5)c5nc(=O)c7c(Cl)cccc7n5-6)CC4)CC3)nn2)C(C)(C)C)cc1`, the DC50 (usually the concentration at which degradation of the target reaches its halfway point) in data set [24] is “Not_active”.
For the compound `O=c1nc2n(c3cccc(Cl)c13)-c1ccc(C3CCNCC3)cc1C21CCCCC1`, the IC50 in [16] is 43 nM; in [17], 58 nM.
For the compound `Cc1ncsc1-c1ccc([C@H](CC[C@H](C)CCN2CCC(c3ccc4c(c3)n(C3CCCC3)c3nc(=O)c5c(Br)cccc5n43)CC2)NC(=O)[C@@H]2C[C@@H](O)CN2C(=O)[C@@H](NC(=O)C2(F)CC2)C(C)(C)C)cc1`, the figures for the DC50 in [25] and in data set [26] were 1 nM and 32 nM, respectively. The figures for the Emax in the data set listed under Homo sapiens [27] and in the data set filed under Homo sapiens [28] were 81% and 67%, respectively. Besides, the Ratio in the data set filed under Homo sapiens [29] came out at 32.
